Data on 26 molecules can be found in patent publication US20240246969A1, “HETEROCYCLIC DERIVATIVES AS CAMKK2 INHIBITORS” (Bristol-Myers Squibb Company, priority 2021, published 2024).

The test system of assay [1] is A549 lung carcinoma cells. In words: Cell proliferation assay (CellTiter 96 Aqueous). Type of assay: cell-based. The conditions noted are these: Homo sapiens, compounds 48 hours, read-out: Cellular IC50 Proliferation. Here is the method:
Proliferation was measured using CellTiter 96 Aqueous Non-Radioactive Cell Proliferation Assay Kit (Promega), which determines the number of viable cells in culture based on quantitation of dehydrogenase enzymes, as an indicator of metabolically active cells. A549 lung carcinoma cells were seeded at 2,000 cells/well in a 96-well tissue culture treated plate in DMEM+10% FBS+1× pen/step+1×NEAA and incubated at 37° C. overnight in a CO2 incubator. Cells were treated with compounds for 48 hours. Then viability was measured using CellTiter 96 Aqueous Non-Radioactive Cell Proliferation Assay Kit (Promega). Detection was performed using Biotek Cytation 5 Cell Imaging Multi Mode plate reader.

Assay [2] deals with phosphorylation of CaMKK2 substrate AMPK at Thr172 in A549 lung carcinoma cells. The assay can be described thus: Cell-based phosphorylation assay (Phospho-AMPK Thr172 HTRF). Particulars: Homo sapiens; A549 cells, compounds 4 hours, 3 uM Calcium Ionophore 30 minutes; read-out: Cellular IC50 Phosphorylation. Here is the method: Cellular CaMKK2 inhibition by compounds was measured by monitoring the phosphorylation of CaMKK2 substrate AMPK at Thr172 in A549 lung carcinoma cells (ATCC) using CISBIO Phospho-AMPK (Thr172) HTRF kit. A549 cells were plated in 96 well plates at 8000 cells/well in DMEM+10% FBS+1× pen/step+1×NEAA and incubated at 37° C. overnight in a CO2 incubator. Cells were then treated with compounds for 4 hours. After cells were stimulated by 3 uM Calcium Ionophore (Sigma) at 37° C. for 30 minutes, cells were washed and then lysed with cell lysis buffer (CisBio) for 30 minutes. […] Plates were incubated overnight and then read using HTRF mode by BMG PHERAstarFS.

The target of the next assay is CaMKK2 (Homo sapiens, UniProt Q96RR4). The assay can be described thus: CaMKK2 binding assay (LanthaScreen TR-FRET). The method, then:
The ability of test compounds to bind and inhibit the activity of CaMKK2 were determined using a binding assay using LanthaScreent (Thermofisher) detection reagents in a 384-well plate format using the following assay buffer: 50 mM HEPES (pH7.5), 10 mM MgCl2, 1 mM EGTA, and 0.01% Brij-35.
A 10-point serial dilution of inhibitor compound in 0.5% DMSO was added to each well of the plate. The final assay volume in well was 15 uL. […] A ratio was calculated from the 2 readouts and fitted to a 4-parameter fit to determine the binding IC50.

Each structure is given as a SMILES string. Where only a bound is given, the exact number is not on record here.

Sequence of CaMKK2 (Q96RR4 whole entry): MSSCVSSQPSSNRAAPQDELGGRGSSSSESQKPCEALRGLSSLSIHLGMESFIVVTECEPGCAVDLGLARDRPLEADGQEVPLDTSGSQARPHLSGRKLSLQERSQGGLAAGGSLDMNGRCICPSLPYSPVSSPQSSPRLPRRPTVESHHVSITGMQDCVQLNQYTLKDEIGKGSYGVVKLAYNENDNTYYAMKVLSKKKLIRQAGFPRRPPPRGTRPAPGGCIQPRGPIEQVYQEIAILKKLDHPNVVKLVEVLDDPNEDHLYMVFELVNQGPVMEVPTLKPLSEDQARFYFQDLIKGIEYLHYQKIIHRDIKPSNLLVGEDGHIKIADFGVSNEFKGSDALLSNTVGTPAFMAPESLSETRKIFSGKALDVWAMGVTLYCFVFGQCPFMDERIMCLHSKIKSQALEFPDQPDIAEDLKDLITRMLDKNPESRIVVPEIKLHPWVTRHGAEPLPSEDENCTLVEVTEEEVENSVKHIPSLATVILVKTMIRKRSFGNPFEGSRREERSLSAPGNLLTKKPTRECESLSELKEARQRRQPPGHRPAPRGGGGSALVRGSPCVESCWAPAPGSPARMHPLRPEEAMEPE

For the molecule `O=C(O)c1ccc(-c2ccnc3cn(-c4ccccc4)nc23)cc1C1CCCC1` [Example 3.2, 2-Cyclopentyl-4-(2-phenyl-2H-pyrazolo[4,3-b]pyridin-7-yl)benzoic Acid], the IC50 was above 10000 nM in assay [1], below 100 nM in assay [2] and below 100 nM at CaMKK2.

On to `O=C(O)c1ccc(-n2ccc3ncc(-c4cccc(C5CC5)c4)nc32)cc1C1CCCC1` [Example 2, 2-Cyclopentyl-4-[3-(3-cyclopropylphenyl)pyrrolo[2,3-b]pyrazin-5-yl]benzoic Acid], for which the IC50 in assay [1] is above 10000 nM; in assay [2], below 100 nM; at CaMKK2 it was below 100 nM.

Take `Cc1cccc(-n2cc3nccc(-c4ccc(C(=O)O)c(C5CCCC5)c4)c3n2)c1` [Example 3.3, 2-Cyclopentyl-4-(2-(m-tolyl)-2H-pyrazolo[4,3-b]pyridin-7-yl)benzoic Acid]: the IC50 in assay [1] is above 10000 nM; in assay [2], 100 to 1000 nM; at CaMKK2, below 100 nM.

Regarding `O=C(O)c1ccc(-n2ccc3ncc(-c4ccccc4)nc32)cc1C1CCCC1` [Example 1, 2-Cyclopentyl-4-(3-phenylpyrrolo[2,3-b]pyrazin-5-yl)benzoic Acid], the IC50 in assay [1] was above 10000 nM; in assay [2], below 100 nM; on CaMKK2, below 100 nM.

On to `O=C(O)c1ccc(-c2c(F)cnc3cn(-c4cc(Cl)cc(Cl)c4)nc23)cc1C1CCCC1` [Example 3.16, 2-Cyclopentyl-4-(2-(3,5-dichlorophenyl)-6-fluoro-2H-pyrazolo[4,3-b]pyridin-7-yl)benzoic Acid], for which the IC50 in assay [1] was above 10000 nM; in assay [2], below 100 nM; on CaMKK2 it was below 100 nM.

In the case of `O=C(O)c1ccc(-n2ccc3ncc(-c4ccccc4)nc32)cc1NC1CCCC1` [Example 7, 2-(Cyclopentylamino)-4-(3-phenyl-5H-pyrrolo[2,3-b]pyrazin-5-yl)benzoic Acid], the IC50 is above 10000 nM in assay [1], 1000 to 10000 nM in assay [2] and below 100 nM at CaMKK2.

Take `O=C(O)c1ccc(-n2ccc3ncc(-c4cccc(Cl)c4)nc32)cc1C1CCCC1` [Example 3, 4-[3-(3-Chlorophenyl)pyrrolo[2,3-b]pyrazin-5-yl]-2-cyclopentyl-benzoic Acid]: the IC50 in assay [1] was above 10000 nM; in assay [2] it was 100 to 1000 nM; at CaMKK2, below 100 nM.

In the case of `O=C(O)c1ccc(-c2ccnc3cc(-c4ccccc4)nn23)cc1C1CCCC1` [Example 2.2, 2-Cyclopentyl-4-(2-phenylpyrazolo[1,5-a]pyrimidin-7-yl)benzoic Acid], the IC50 was above 10000 nM in assay [1], 100 to 1000 nM in assay [2] and below 100 nM at CaMKK2.

On to `O=C(O)c1ccc(-c2c(F)cnc3cn(-c4cc(F)cc(F)c4)nc23)cc1C1CCCC1` [Example 3.12, 2-Cyclopentyl-4-(2-(3,5-difluorophenyl)-6-fluoro-2H-pyrazolo[4,3-b]pyridin-7-yl)benzoic Acid], for which the IC50 is above 10000 nM in assay [1], 100 to 1000 nM in assay [2] and below 100 nM at CaMKK2.

Regarding `O=C(O)c1ccc(-n2ccc3ncc(C4CC4)nc32)cc1C1CCCC1` [Example 18, 2-Cyclopentyl-4-(3-cyclopropyl-5H-pyrrolo[2,3-b]pyrazin-5-yl)benzoic Acid], the figures for the IC50 (in assay [1]; in assay [2]; on CaMKK2) were above 10000 nM, 100 to 1000 nM and below 100 nM, respectively.

As to `Cc1cc(C)cc(-c2cnc3ccn(-c4ccc(C(=O)O)c(OC5CNC5)c4)c3n2)c1` [Example 24, 2-(azetidin-3-yloxy)-4-(3-(3,5-dimethylphenyl)-5H-pyrrolo[2,3-b]pyrazin-5-yl)benzoic Acid], the IC50 was above 10000 nM in assay [1], below 100 nM in assay [2] and 100 to 1000 nM at CaMKK2.

For `O=C(O)c1ccc(-n2ccc3ncc(-c4ccccc4)nc32)cc1NCC1CC1` [Example 6, 2-((Cyclopropylmethyl)amino)-4-(3-phenyl-5H-pyrrolo[2,3-b]pyrazin-5-yl)benzoic Acid], the IC50 is above 10000 nM in assay [1], 100 to 1000 nM in assay [2] and below 100 nM on CaMKK2.

Turning to `O=C(O)c1ccc(-c2ccnc3cn(-c4cccc(Cl)c4)nc23)cc1C1CCCC1` [Example 3.6, 4-(2-(3-Chlorophenyl)-2H-pyrazolo[4,3-b]pyridin-7-yl)-2-cyclopentylbenzoic Acid], the IC50 is above 10000 nM in assay [1], 100 to 1000 nM in assay [2] and below 100 nM at CaMKK2.

Regarding `Cc1cc(Cl)cc(-n2cc3ncc(F)c(-c4ccc(C(=O)O)c(C5CCCC5)c4)c3n2)c1` [Example 3.7, 4-(2-(3-Chloro-5-methylphenyl)-6-fluoro-2H-pyrazolo[4,3-b]pyridin-7-yl)-2-cyclopentylbenzoic Acid], the IC50 is above 10000 nM in assay [1], below 100 nM in assay [2] and below 100 nM at CaMKK2.

Consider `Cn1cc2cc(-c3cnc4ccn(-c5ccc(C(=O)O)c(NCC6CC6)c5)c4n3)ccc2n1` [Example 12, 2-(Cyclopropylmethylamino)-4-(3-(2-methyl-2H-indazol-5-yl)-5H-pyrrolo[2,3-b]pyrazin-5-yl)benzoic Acid], for which the IC50 in assay [1] is above 10000 nM; in assay [2], 100 to 1000 nM; at CaMKK2 it was below 100 nM.

Consider `O=C(O)c1ccc(-c2ccnc3cc(-c4cccc(OCC5CC5)c4)nn23)cc1C1CCCC1` [Example 2.11, 2-Cyclopentyl-4-(2-(3-(cyclopropylmethoxy)phenyl)pyrazolo[1,5-a]pyrimidin-7-yl)benzoic Acid], for which the results for the IC50 (in assay [1]; in assay [2]; at CaMKK2) were above 10000 nM, 100 to 1000 nM and below 100 nM, respectively.

Take `N#CNC(=O)c1ccc(-n2ccc3ncc(C4CC4)nc32)cc1C1CCCC1` [Example 19, N-Cyano-2-cyclopentyl-4-(3-cyclopropyl-5H-pyrrolo[2,3-b]pyrazin-5-yl)benzamide]: the IC50 is above 10000 nM in assay [1], 1000 to 10000 nM in assay [2] and below 100 nM on CaMKK2.

For the molecule `O=C(O)c1ccc(-c2ccnc3cc(-c4ccccc4F)nn23)cc1C1CCCC1` [Example 2.6, 2-Cyclopentyl-4-(2-(2-fluorophenyl)pyrazolo[1,5-a]pyrimidin-7-yl)benzoic Acid], the IC50 was above 10000 nM in assay [1], 100 to 1000 nM in assay [2] and below 100 nM on CaMKK2.

As for `O=C(O)c1ccc(-c2ccnc3cn(-c4cccc(C5CC5)c4)nc23)cc1C1CCCC1` [Example 3.4, 2-Cyclopentyl-4-(2-(3-cyclopropylphenyl)-2H-pyrazolo[4,3-b]pyridin-7-yl)benzoic Acid], the IC50 in assay [1] is above 10000 nM; in assay [2], below 100 nM; on CaMKK2, below 100 nM.

For the molecule `CCNc1cc(-n2ccc3ncc(-c4ccc5nn(C)cc5c4)nc32)ccc1C(=O)O` [Example 13, 2-(Ethylamino)-4-(3-(2-methyl-2H-indazol-5-yl)-5H-pyrrolo[2,3-b]pyrazin-5-yl)benzoic Acid], the IC50 was above 10000 nM in assay [1], 100 to 1000 nM in assay [2] and below 100 nM at CaMKK2.

`O=C(O)c1ccc(-c2ccnc3cc(C4CC4)nn23)cc1C1CCCC1` [Example 2.1, 2-Cyclopentyl-4-(2-cyclopropylpyrazolo[1,5-a]pyrimidin-7-yl)benzoic Acid] showed an IC50 at CaMKK2 below 100 nM.

As to `Cn1cc(-c2cc3nccc(-c4ccc(C(=O)O)c(C5CCCC5)c4)n3n2)cn1` [Example 2.12, 2-Cyclopentyl-4-(2-(1-methyl-H-pyrazol-4-yl)pyrazolo[1,5-a]pyrimidin-7-yl)benzoic Acid], the IC50 on CaMKK2 was below 100 nM.

Molecule `Cc1cc(C)cc(-c2cnc3ccn(-c4ccc(C(=O)O)c(NC5CNC5)c4)c3n2)c1` [Example 25, 2-(azetidin-3-ylamino)-4-(3-(3,5-dimethylphenyl)-5H-pyrrolo[2,3-b]pyrazin-5-yl)benzoic Acid] had an IC50 on CaMKK2 below 100 nM.

On to `Cc1cc(F)cc(-n2cc3ncc(F)c(-c4ccc(C(=O)O)c(C5CCCC5)c4)c3n2)c1` [Example 3.11, 2-Cyclopentyl-4-(6-fluoro-2-(3-fluoro-5-methylphenyl)-2H-pyrazolo[4,3-b]pyridin-7-yl)benzoic Acid], for which, at CaMKK2, the IC50 was below 100 nM.

Turning to `Cc1cccc(-c2cnc3ccn(-c4ccc(C(=O)O)c(C5CCCC5)c4)c3n2)c1` [Example 4, 2-Cyclopentyl-4-(3-(m-tolyl)-5H-pyrrolo[2,3-b]pyrazin-5-yl)benzoic Acid], on CaMKK2, the IC50 is below 100 nM.

For `CCNc1cc(-n2ccc3ncc(-c4ccc5cn(C)nc5c4)nc32)ccc1C(=O)O` [Example 16, 2-(Ethylamino)-4-(3-(2-methyl-2H-indazol-6-yl)-5H-pyrrolo[2,3-b]pyrazin-5-yl)benzoic Acid], on CaMKK2, the IC50 is below 100 nM.
